Experimental data reported in patent publication US20170100396A1 (priority 2015, published 2017).

System: influenza A virus (IAV) A/Aichi/2/68 (H3N2)
Experiment: microbe, parasite or virus in culture
Assay type: cell-based, influenza A virus in MDCK cells
Conditions: Influenza A virus, H3N2, MDCK, 48 h, read-out: CPE IC50

First: O=C(NCCc1ccccc1)c1c[nH]c2ncc(C3CC3)nc12
Second: O=C(N[C@@H](C(=O)NCCc1ccccc1)C1CC1)c1c[nH]c2ncc(C3CC3)nc12
The IC50 of the first is lower: 66.9 µM for the first, over 100 µM for the second. The first is the more potent here.

Compared with `O=C(N[C@@H](C(=O)NCc1ccc(Cl)cc1Cl)C1CC1)c1c[nH]c2ncc(C3CC3)nc12`, `O=C(N[C@@H](C(=O)NCc1ccc(Cl)c(Cl)c1)C1CC1)c1c[nH]c2ncc(C3CC3)nc12` is 2.4-fold lower in IC50: 11.2 µM for the first, 4.7 µM for the second. The second is the more potent here.

Compared with `N#Cc1cccc(CNC(=O)[C@H](NC(=O)c2c[nH]c3ncc(C4CC4)nc23)C2CC2)c1`, `O=C(N[C@@H](C(=O)NCc1cccc(Cl)c1)C1CC1)c1c[nH]c2ncc(C3CC3)nc12` is 1.7-fold lower in IC50: 12.4 µM for the first, 7.3 µM for the second.

First: COC(=O)c1cccc(CNC(=O)[C@H](NC(=O)c2c[nH]c3ncc(C4CC4)nc23)C2CC2)c1
Second: O=C(N[C@@H](C(=O)NCc1ccc(F)c(F)c1)C1CC1)c1c[nH]c2ncc(C3CC3)nc12
The IC50 of the first is 3.1-fold lower: 4.8 µM for the first, 14.8 µM for the second. The first is the more potent here.

`O=C(N[C@H](C(=O)N1CCCC1)C1CC1)c1c[nH]c2ncc(C3CC3)nc12` and `O=C(N[C@@H](C(=O)N1CCCC1)C1CC1)c1c[nH]c2ncc(C3CC3)nc12` cannot be ordered by IC50: over 25 µM for the first, over 25 µM for the second.

`CC(C)C[C@@H](NC(=O)c1c[nH]c2ncc(C3CC3)nc12)C(=O)N1CCCC1` and `CC(C)C[C@@H](NC(=O)c1c[nH]c2ncc(C3CC3)nc12)C(=O)NCC(=O)NC1CCCC1` cannot be ordered by IC50: over 100 µM for the first, over 100 µM for the second.

`CC(C)C[C@@H](NC(=O)c1c[nH]c2ncc(C3CC3)nc12)C(=O)N1CC2(CN(C(=O)OC(C)(C)C)C2)C1` and `COC(=O)C1CC2(CC(NC(=O)[C@@H](CC(C)C)NC(=O)c3c[nH]c4ncc(C5CC5)nc34)C2)C1` (stereo partly shown) cannot be ordered by IC50: over 100 µM for the first, over 100 µM for the second.

`O=C(N[C@@H](C(=O)N1CC2(COC2)C1)C1CC1)c1c[nH]c2ncc(C3CC3)nc12` and `O=C(N[C@@H](C(=O)N1CC2(CCC2)C1)C1CC1)c1c[nH]c2ncc(C3CC3)nc12` cannot be ordered by IC50: over 100 µM for the first, over 100 µM for the second.

First: O=C(N[C@@H](C(=O)N1CCN(C2CCOCC2)CC1)C1CC1)c1c[nH]c2ncc(C3CC3)nc12
Second: O=C(N[C@@H](C(=O)N1CCN(Cc2ccccc2)CC1)C1CC1)c1c[nH]c2ncc(C3CC3)nc12
The IC50 of the first is higher: over 100 µM for the first, 41.9 µM for the second.

First: O=C(N[C@@H](C(=O)N1CCC2(CCN(Cc3ccccc3)C2=O)C1)C1CC1)c1c[nH]c2ncc(C3CC3)nc12 (stereo partly shown)
Second: O=C(N[C@@H](C(=O)N1CCc2ccccc2C1)C1CC1)c1c[nH]c2ncc(C3CC3)nc12
The IC50 of the first is lower: 27 µM for the first, over 100 µM for the second.

`O=C(N[C@@H](C(=O)NCC(=O)N1CCS(=O)(=O)CC1)C1CC1)c1c[nH]c2ncc(C3CC3)nc12` and `O=C(N[C@@H](C(=O)NCC(=O)N1CCCC1)C1CC1)c1c[nH]c2ncc(C3CC3)nc12` cannot be ordered by IC50: over 100 µM for the first, over 100 µM for the second.

`CC(C)C[C@@H](NC(=O)c1c[nH]c2ncc(C3CC3)nc12)C(=O)NCCC(=O)NC1CCCC1` and `CC(C)C[C@@H](NC(=O)c1c[nH]c2ncc(C3CC3)nc12)C(=O)NCCC(=O)Nc1ccccc1` cannot be ordered by IC50: over 100 µM for the first, over 100 µM for the second.

Going from `Cc1ccc(CNC(=O)c2c[nH]c3ncc(C(C)C)nc23)nn1` to `CC(C)c1cnc2[nH]cc(C(=O)NCC(C)(C)C)c2n1`, the IC50 falls from 139 µM to 52.2 µM (2.7-fold).

`O=C(N[C@@H](C(=O)NCCC(=O)N1CCCC1)C1CC1)c1c[nH]c2ncc(C3CC3)nc12` and `O=C(N[C@@H](C(=O)NCC(=O)N1CCOCC1)C1CC1)c1c[nH]c2ncc(C3CC3)nc12` cannot be ordered by IC50: over 100 µM for the first, over 100 µM for the second.

`CC(C)c1cnc2[nH]cc(C(=O)NCC(F)(F)F)c2n1` and `CCN(C)C(=O)c1c[nH]c2ncc(C(C)C)nc12` cannot be ordered by IC50: over 50 µM for the first, over 100 µM for the second.

Going from `O=C(N[C@@H](C(=O)NCc1ccc(Cl)cc1)C1CC1)c1c[nH]c2ncc(C3CC3)nc12` to `O=C(N[C@@H](C(=O)NCc1ccc(F)cc1)C1CC1)c1c[nH]c2ncc(C3CC3)nc12`, the IC50 rises from 2.99 µM to 16.1 µM (5.4-fold). The first is the more potent here.

Compared with `CC(C)c1cnc2[nH]cc(C(=O)NC3CCCCC3O)c2n1` (stereo not shown), `CC(C)c1cnc2[nH]cc(C(=O)NC3CCOC3(C)C)c2n1` (stereo not shown) is higher in IC50: 11.3 µM for the first, over 100 µM for the second. The first is the more potent here.

First: COc1ccc(CCNC(=O)[C@H](NC(=O)c2c[nH]c3ncc(C4CC4)nc23)C2CC2)cc1
Second: O=C(N[C@@H](C(=O)NCc1ccc(OC(F)(F)F)cc1)C1CC1)c1c[nH]c2ncc(C3CC3)nc12
The IC50 of the first is higher: over 100 µM for the first, 5.4 µM for the second.

First: CC(C)c1cnc2[nH]cc(C(=O)NC(C)C(C)(C)O)c2n1 (stereo not shown)
Second: COCCN(CCOC)C(=O)c1c[nH]c2ncc(C(C)C)nc12
The IC50 of the first is lower: 12.2 µM for the first, over 100 µM for the second. The first is the more potent here.

`CC(C)c1cnc2[nH]cc(C(=O)N3CCC(F)(F)CC3)c2n1` and `CC(C)NC(=O)c1c[nH]c2ncc(-c3ccccc3C(F)(F)F)nc12` cannot be ordered by IC50: over 100 µM for the first, over 100 µM for the second.

Compared with `O=C(N[C@@H](C(=O)NCc1ccccc1Cl)C1CC1)c1c[nH]c2ncc(C3CC3)nc12`, `O=C(N[C@@H](C(=O)NCc1cc(Cl)cc(Cl)c1)C1CC1)c1c[nH]c2ncc(C3CC3)nc12` is higher in IC50: 8.8 µM for the first, over 25 µM for the second. The first is the more potent here.

`O=C(N[C@@H](C(=O)NCc1ccc(C(F)(F)F)cc1)C1CC1)c1c[nH]c2ncc(C3CC3)nc12` and `COc1ccc(C(C#N)NC(=O)[C@H](NC(=O)c2c[nH]c3ncc(C4CC4)nc23)C2CC2)cc1` (stereo partly shown) are within 1.5-fold of each other in IC50: 4.6 µM for the first, 4.9 µM for the second.

`CS(=O)(=O)CCNC(=O)c1c[nH]c2ncc(-c3ccccc3Cl)nc12` and `CC(C)C[C@@H](NC(=O)c1c[nH]c2ncc(C3CC3)nc12)C(=O)NC1CCCc2ccccc21` (stereo partly shown) cannot be ordered by IC50: over 100 µM for the first, over 100 µM for the second.

Same assay, conditions: Influenza A virus, H3N2, read-out: % CPE reduction

Compared with `O=C(N[C@@H](C(=O)N1CCC(CO)C1)C1CCCCC1)c1c[nH]c2ncc(C3CC3)nc12` (stereo partly shown), `O=C(N[C@@H](C(=O)N1CC[C@@H](O)C1)C1CCCCC1)c1c[nH]c2ncc(C3CC3)nc12` is lower in inhibition at 50 µM: -10.1% for the first, -14.8% for the second.

Going from `O=C(N[C@@H](C(=O)NCc1ccncc1)C1CCCCC1)c1c[nH]c2ncc(C3CC3)nc12` to `O=C(N[C@@H](C(=O)NCc1ccncn1)C1CCCCC1)c1c[nH]c2ncc(C3CC3)nc12`, the inhibition at 50 µM rises from -8.3% to -2.2%.

First: O=C(N[C@@H](C(=O)N[C@H]1CC[C@H](C(=O)O)CC1)C1CCCCC1)c1c[nH]c2ncc(C3CC3)nc12
Second: O=C(O)c1cccc(CNC(=O)[C@H](NC(=O)c2c[nH]c3ncc(C4CC4)nc23)C2CC2)c1
The inhibition at 50 µM of the first is higher: 14.8% for the first, -0.2% for the second.

First: O=C(N[C@@H](C(=O)NCc1cccnc1)C1CC1)c1c[nH]c2ncc(C3CC3)nc12
Second: CC(C)C[C@@H](NC(=O)c1c[nH]c2ncc(C3CC3)nc12)C(=O)NCC(=O)Nc1ccccc1
The inhibition at 50 µM of the first is lower: 6.6% for the first, 25% for the second.

Work on `O=C(NCC(=O)N1CCCC1)c1c[nH]c2ncc(C3CC3)nc12` yielded an inhibition at 50 µM of 36.2%.

Compared with `COC(=O)C1CCN(C(=O)[C@H](NC(=O)c2c[nH]c3ncc(C4CC4)nc23)C2CCCCC2)C1` (stereo partly shown), `O=C(N[C@@H](C(=O)N1CCC(C(=O)O)C1)C1CCCCC1)c1c[nH]c2ncc(C3CC3)nc12` (stereo partly shown) is higher in inhibition at 5 µM: -8.1% for the first, 11.6% for the second.

Going from `CCOC(=O)C1(c2cccc(-c3cnc4[nH]cc(C(=O)NC(C)C)c4n3)c2)CC1` to `CC(C)C(NC(=O)c1c[nH]c2ncc(C3CC3)nc12)C(N)=O` (stereo not shown), the inhibition at 5 µM falls from -0.5% to -10.7%.

Going from `CC(NC(=O)[C@H](NC(=O)c1c[nH]c2ncc(C3CC3)nc12)C1CC1)c1ccccc1` (stereo partly shown) to `O=C(N[C@@H](C(=O)NCc1ccccc1)C1CCCCC1)c1c[nH]c2ncc(C3CC3)nc12`, the inhibition at 5 µM falls from 2.7% to -2.2%.

First: NC(=O)C(NC(=O)c1c[nH]c2ncc(C3CC3)nc12)c1ccc(OC(F)(F)F)cc1 (stereo not shown)
Second: O=C(N[C@@H](C(=O)NCC1CCOCC1)C1CCCCC1)c1c[nH]c2ncc(C3CC3)nc12
The inhibition at 5 µM of the first is lower: -12.9% for the first, 20.5% for the second.

`CC(C)NC(=O)c1c[nH]c2ncc(-c3ccc(C4(C(=O)O)CC4)cc3)nc12` gave an inhibition at 25 µM of -8.7%.

Compound `COc1ccc(C(C)(C)CNC(=O)c2c[nH]c3ncc(C4CC4)nc23)cc1OC` has an inhibition at 2.5 µM of 15.8%.

Same assay, conditions: Influenza A virus, H3N2, read-out: CPE IC50

`CS(=O)(=O)c1cccc(CNC(=O)c2c[nH]c3ncc(-c4ccccc4Cl)nc23)c1` gave an IC50 of 22.5 µM.

Biological target: PB2 cap binding domain (PB2-CBD) (residues 318-483) (Influenza A virus (A/duck/Shantou/4610/2003(H5N1)), UniProt Q2LG68)
Experiment: not given
Parameters: species or system avian influenza strain A/duck/Shantou/4610/2003(H5N1)
Conditions: not given

For `CC(C)c1cnc2[nH]cc(C(=O)NCC(C)(C)C)c2n1`, the “Fp (result in words)” value was “No displacement”.
In the case of `O=C(NCC1CC1)c1c[nH]c2ncc(-c3ccccc3Cl)nc12`, the “Fp (result in words)” value is reported as “No displacement”.
With `CS(=O)(=O)c1cccc(CNC(=O)c2c[nH]c3ncc(-c4ccccc4Cl)nc23)c1` the “Fp (result in words)” value was “No displacement”.

System: not listed separately
Experiment: in vitro
Conditions: dog

`O=C(NCCc1ccccc1)c1c[nH]c2ncc(C3CC3)nc12` and `N#Cc1cccc(CNC(=O)[C@H](NC(=O)c2c[nH]c3ncc(C4CC4)nc23)C2CC2)c1` cannot be ordered by CC50: over 100 µM for the first, over 50 µM for the second.

`O=C(N[C@@H](C(=O)NCc1ccc(Cl)cc1Cl)C1CC1)c1c[nH]c2ncc(C3CC3)nc12` and `COC(=O)c1cccc(CNC(=O)[C@H](NC(=O)c2c[nH]c3ncc(C4CC4)nc23)C2CC2)c1` cannot be ordered by CC50: over 12.5 µM for the first, 63.9 µM for the second.
